In patent publication US8106062B1, “Calcium channel blockers” (Diakron Pharmaceuticals, Inc., priority 2003, dated 2012):
One block for each compound: values may come before it.

How the values were obtained:
[1] = biological target: T1, T-type calcium channels (α1G) (Homo sapiens, UniProt O43497); test: Patch-clamp assay for T-channel blockage in HEK cells; format: cell-based; settings: time course of T-channel blockage, 500 nM and 1 uM, preliminary numbers
T1 construct: expressed in transfected cells
T1 sequence (O43497 whole entry): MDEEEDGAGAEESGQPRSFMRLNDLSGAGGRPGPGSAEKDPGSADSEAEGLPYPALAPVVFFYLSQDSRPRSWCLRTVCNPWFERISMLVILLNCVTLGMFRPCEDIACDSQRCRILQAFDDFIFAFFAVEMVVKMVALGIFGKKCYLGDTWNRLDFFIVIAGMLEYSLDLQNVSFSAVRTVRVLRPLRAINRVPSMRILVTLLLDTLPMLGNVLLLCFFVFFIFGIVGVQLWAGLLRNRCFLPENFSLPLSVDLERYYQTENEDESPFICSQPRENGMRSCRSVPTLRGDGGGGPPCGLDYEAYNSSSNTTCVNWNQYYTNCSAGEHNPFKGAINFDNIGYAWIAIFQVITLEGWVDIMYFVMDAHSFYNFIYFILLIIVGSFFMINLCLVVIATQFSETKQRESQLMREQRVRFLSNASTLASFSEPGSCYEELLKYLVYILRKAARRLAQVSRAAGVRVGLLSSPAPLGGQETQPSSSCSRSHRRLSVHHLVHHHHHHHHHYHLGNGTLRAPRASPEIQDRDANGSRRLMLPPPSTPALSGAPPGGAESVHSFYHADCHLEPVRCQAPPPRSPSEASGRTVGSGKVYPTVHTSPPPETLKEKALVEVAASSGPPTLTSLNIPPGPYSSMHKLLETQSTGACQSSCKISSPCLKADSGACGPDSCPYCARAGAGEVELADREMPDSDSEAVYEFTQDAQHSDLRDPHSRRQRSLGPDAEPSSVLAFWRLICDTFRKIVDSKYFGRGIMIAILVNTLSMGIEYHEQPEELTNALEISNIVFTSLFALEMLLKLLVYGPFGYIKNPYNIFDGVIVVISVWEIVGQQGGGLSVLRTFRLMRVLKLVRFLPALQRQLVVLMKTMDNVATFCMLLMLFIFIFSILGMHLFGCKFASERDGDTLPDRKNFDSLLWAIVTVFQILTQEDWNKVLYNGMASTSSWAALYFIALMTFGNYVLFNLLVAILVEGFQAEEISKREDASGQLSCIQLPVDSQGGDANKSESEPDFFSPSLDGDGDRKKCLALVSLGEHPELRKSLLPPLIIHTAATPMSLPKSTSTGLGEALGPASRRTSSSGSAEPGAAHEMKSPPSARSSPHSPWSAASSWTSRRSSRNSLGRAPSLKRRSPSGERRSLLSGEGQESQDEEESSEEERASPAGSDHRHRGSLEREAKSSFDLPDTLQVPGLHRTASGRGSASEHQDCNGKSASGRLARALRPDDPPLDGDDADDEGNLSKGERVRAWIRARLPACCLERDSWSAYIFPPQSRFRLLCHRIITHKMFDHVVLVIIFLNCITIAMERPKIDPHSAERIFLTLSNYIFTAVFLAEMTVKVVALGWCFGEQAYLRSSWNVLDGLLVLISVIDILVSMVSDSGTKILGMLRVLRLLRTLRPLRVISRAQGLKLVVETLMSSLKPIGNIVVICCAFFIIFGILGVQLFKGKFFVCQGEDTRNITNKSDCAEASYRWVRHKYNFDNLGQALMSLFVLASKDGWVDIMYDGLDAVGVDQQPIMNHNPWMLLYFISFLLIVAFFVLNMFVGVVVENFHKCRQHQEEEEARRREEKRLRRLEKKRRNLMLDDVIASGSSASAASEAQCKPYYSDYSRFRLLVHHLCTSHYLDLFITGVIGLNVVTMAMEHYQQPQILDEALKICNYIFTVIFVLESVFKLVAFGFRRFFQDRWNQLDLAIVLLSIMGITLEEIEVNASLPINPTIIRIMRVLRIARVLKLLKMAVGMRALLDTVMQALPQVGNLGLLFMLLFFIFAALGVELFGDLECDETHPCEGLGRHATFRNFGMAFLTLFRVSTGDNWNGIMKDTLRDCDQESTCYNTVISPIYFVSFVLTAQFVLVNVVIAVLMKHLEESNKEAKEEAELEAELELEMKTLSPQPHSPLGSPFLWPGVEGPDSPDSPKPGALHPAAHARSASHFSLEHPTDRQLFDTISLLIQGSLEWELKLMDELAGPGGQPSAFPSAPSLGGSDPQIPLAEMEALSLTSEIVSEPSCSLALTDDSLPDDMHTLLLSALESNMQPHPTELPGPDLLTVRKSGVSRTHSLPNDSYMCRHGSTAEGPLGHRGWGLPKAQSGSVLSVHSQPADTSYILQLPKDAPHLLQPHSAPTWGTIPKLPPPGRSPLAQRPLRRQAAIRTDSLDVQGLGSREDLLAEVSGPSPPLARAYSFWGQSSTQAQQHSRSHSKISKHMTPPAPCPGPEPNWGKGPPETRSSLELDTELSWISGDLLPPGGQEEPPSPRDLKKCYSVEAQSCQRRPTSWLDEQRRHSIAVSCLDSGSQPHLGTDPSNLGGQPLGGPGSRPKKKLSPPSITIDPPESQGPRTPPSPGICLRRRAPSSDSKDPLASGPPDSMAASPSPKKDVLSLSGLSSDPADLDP
Description: Specifically, individual HEK cells were tested in vitro using a patch-clamp assay for T-channel blockage. Tests were performed at concentrations of 500 nM and 1 uM, and the time course of the blockage was followed for a period of several minutes.
In the past, patch clamp assays for T-channel activity would measure inhibition of calcium-ion-mediated current over the course of only a few minutes, e.g., 2, 3, or 5 minutes. […] The assays described herein can be used to differentiate between conventional-type T-channel blockers, which usually show a time constant of blockage of a few seconds, and the long-acting T-channel blockers, which show time constants between 1 minute and 2, 4, 5, 10 or more minutes. It is the latter group of compounds that is particularly interesting and useful in the present invention.
T-type calcium channels (α1G) were stably expressed in HEK293 cells and maintained at 37° C. in DMEM. Cells were released from dishes using trypsin and EGTA or Accutase and studied within 4 hours of isolation. Individual cells were placed on the stage of an inverted microscope and patched with pipettes pulled from aluminasilicate glass capillary tubes, which had resistances of 0.8-1.5 Mohm. Currents were recorded using an Axopatch 200 (Axon Instruments, Inc.) and pClamp data acquisition software (8.1). The pipette solution contained (in mM): KCl 130, EGTA 11, HEPES 10, MgATP 5, pH=7.4. The bath solution contained (in mM): NaCl 140, CaCl2 1, HEPES 10, pH=7.4. Test compounds were diluted into bath solution to the desired concentration (100 nM-10 μM) from a stock solutions (3 or 10 mM in DMSO). Current measurements were made at 20-23° C. Cells were held at −110 mV in order to maximize occupancy in the closed state and depolarized for 100 ms to various potentials. Currents were capacity corrected using 16-64 subthreshold responses (voltage steps of 10 or 20 mV) and leak subtracted, based on linear interpolation between the current at the holding potential and 0 mV. Cells were moved from a control chamber to a chamber with test compound and the effect of the drug was assessed using a voltage clamp protocol that stepped to −30 mV for 100 ms from a holding potential of −110 mV once every 5 s. After each 10-13 minutes, the train protocol was interrupted and a full current voltage relationship obtained. In general for each compound, four cells were studied for a minimum of 13 minutes, two in drug at 500 nM and two at 1 μM. In some cases other concentrations were also studied. Data were analyzed using Matlab (Mathworks, Natick, Mass.). Drug efficacy was estimated using the relationship: Blocked Fraction=[Drug]/(IC50+[Drug])
The time course of block by drug was fit to a single exponential function: Peak Current=A*exp(−t/τ)+B where A is the initial amplitude of the current, B the final level, t the time after the cell was exposed to drug, and τ, the time constant, i.e. the time it took for the current to be reduced to within 1/e of its final value, B. In general, modification τs are influenced both by drug on rate and off rate, although washout was achievable for only one compound, so off rates are so slow (small) that T can be taken to essentially represent 1/kon. For some compounds despite the presence of the drug in the chamber, modification occurred with a delay. This was quantified from the time modification was first observed. […]

[2] = test system: spontaneously hypertensive rats; settings: 30 mg/Kg oral, cited from earlier work
[3] = test system: spontaneously hypertensive rats; test: Systolic blood pressure (tail cuff) in spontaneously hypertensive rats after IV tail injection; format: in vivo, rat; settings: SHR
Description: In addition to the referenced in vitro studies, in vivo studies have also been conducted. The in vivo hypertension model used here involves administration of compound to spontaneously hypertensive rats through IV tail injection of compound. Systolic blood pressure is then measured using a tail cuff.
Fifteen male spontaneously hypertensive rats (SHR) were used in these studies. The animals were 12 weeks old at arrival and 15 weeks old at the start of study. The animals were divided into five groups, with three animals in each group. The starting, baseline systolic blood pressure for all animals included in the study was 190-220 mmHg. The animals were housed in contact bedding. They were fed Purina 5008. Six days after arrival, the animals were trained in the blood pressure apparatus for four days before the start of the study.
Compounds were administered to the animals by tail vein injection. Dose levels were 0.5 mL. In each study, one group of animals served as control, while the others were injected with a dosage of a compound.
The study was conducted using the schedule set forth below: […]

[4] = multiple dose study, three injections spaced about 25 hours apart, FIG. 2
[5] = single dose 20 mg/Kg, IV tail injection, FIG. 1

Compound: CCCCCCCCCCCCCCCc1cccc(OCC)c1C1C(C(=O)OCC)=C(C)NC(=S)N1C(=O)CC (centres unmarked) [PPK50, 1,2,3,4-tetrahydro-6-methyl-4-[2-ethoxy-6-pentadecylphenyl]-3-(1-oxo-propyl)2-thioxo-5-pyrimidine carboxylic acid ethyl ester]
Time constant [1]: 10 min

Compound: COCC(=O)O[C@]1(CCN(C)CCCc2nc3ccccc3[nH]2)CCc2cc(F)ccc2[C@@H]1C(C)C [Mibefradil]
systolic blood pressure drop in the first 5 hours ([2]; FIG. 1): about 85 mmHg | systolic blood pressure recovery by the end of 24 hours ([2]; FIG. 1): about 45 mmHg | rapid drop of blood pressure ([2]; FIG. 2): 85 mmHg | recovery of blood pressure within 24 hours of administration ([2]; FIG. 2): more than 50%

Compound: CCCCCCCCCCCCCCCc1cccc(OC)c1C1NC(=O)NC(C)=C1C(=O)OCC (centres unmarked) [PPK22, 5-ethoxycarbonyl-4-(2-methoxy-6-pentadecylphenyl)-6-methyl-3,4-dihydropyrimidin-2(1H)-one]
Time constant [1]: 1 min

Now from value to compound, other results behind:

Time constant [1]: 13 min
Compound: CCCCCCCCCCCCCCCc1cccc(OC(C)C)c1C1C(C(=O)OCC)=C(C)NC(=S)N1C(=O)CC (centres unmarked) [PPK51, 1,2,3,4-tetrahydro-6-methyl-4-[2-isopropoxy-6-pentadecylphenyl]-3-(1-oxo-propyl)2-thioxo-5-pyrimidine carboxylic acid ethyl ester]

Time constant [1]: 8 min
Compound: CCCCCCCCCCCCCCCc1cccc(OC(C)C)c1C1C(C(=O)OC)=C(C)NC(C)=C1C(=O)OC [PPK5, dimethyl 1,4-dihydro-4-(2′-isopropoxy-6′-pentadecylphenyl)-2,6-dimethyl-3,5-pyridine dicarboxylate]
additional blood pressure drop after the second injection [3, 4]: ~12 mmHg | blood pressure drop after first injection [3, 4]: about 55 mmHg | time systolic pressure remained at the reduced level ([3]; single dose 20 mg/Kg, IV tail injection): > 24 h | systolic pressure drop in the first 5 hours [3, 5]: about 48 mmHg | systolic pressure drop in the first 10 hours [3, 5]: about 55 mmHg

Time constant [1]: 10 min
Compound: 3,6-dihydro-4-methyl-6-[2-ethoxy-6-pentadecylphenyl]-2-oxo-1,5-(2H)-pyrimidinedicarboxylic acid 1-ethyl 5-isopropyl diester [PPK35]
